According to ChEMBL document CHEMBL5096156, “A Review of Progress in Histone Deacetylase 6 Inhibitors Research: Structural Specificity and Functional Diversity” (J Med Chem, 2021):

Legend:
[1] = target: T1, Polyamine deacetylase HDAC10 (Homo sapiens, UniProt Q969S8); assay: Inhibition of full length human recombinant HDAC10 incubated for 30 to 60 mins by HDAC-Glo I/II assay
T1 sequence (Q969S8 whole entry): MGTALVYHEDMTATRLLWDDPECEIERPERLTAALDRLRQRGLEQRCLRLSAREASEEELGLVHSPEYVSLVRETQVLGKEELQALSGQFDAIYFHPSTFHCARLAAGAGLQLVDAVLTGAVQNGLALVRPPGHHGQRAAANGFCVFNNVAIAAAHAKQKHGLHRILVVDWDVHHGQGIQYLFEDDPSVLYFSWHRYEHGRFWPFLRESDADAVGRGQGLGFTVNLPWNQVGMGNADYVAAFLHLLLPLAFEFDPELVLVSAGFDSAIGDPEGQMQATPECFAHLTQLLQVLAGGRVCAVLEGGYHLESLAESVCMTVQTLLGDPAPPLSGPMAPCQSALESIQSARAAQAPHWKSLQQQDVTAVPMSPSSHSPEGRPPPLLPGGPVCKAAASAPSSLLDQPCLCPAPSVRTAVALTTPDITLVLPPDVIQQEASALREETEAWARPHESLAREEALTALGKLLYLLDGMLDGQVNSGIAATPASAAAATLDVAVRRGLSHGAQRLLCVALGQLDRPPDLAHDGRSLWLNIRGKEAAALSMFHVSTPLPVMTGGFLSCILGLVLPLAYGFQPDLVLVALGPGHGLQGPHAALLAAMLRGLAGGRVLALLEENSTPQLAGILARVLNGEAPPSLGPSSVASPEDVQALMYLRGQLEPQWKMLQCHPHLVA

[2] = target: T2, Histone deacetylase 11 (Homo sapiens, UniProt Q96DB2); assay: Inhibition of full length human recombinant HDAC11 incubated for 30 to 60 mins by HDAC-Glo I/II assay
T2 sequence (Q96DB2 whole entry): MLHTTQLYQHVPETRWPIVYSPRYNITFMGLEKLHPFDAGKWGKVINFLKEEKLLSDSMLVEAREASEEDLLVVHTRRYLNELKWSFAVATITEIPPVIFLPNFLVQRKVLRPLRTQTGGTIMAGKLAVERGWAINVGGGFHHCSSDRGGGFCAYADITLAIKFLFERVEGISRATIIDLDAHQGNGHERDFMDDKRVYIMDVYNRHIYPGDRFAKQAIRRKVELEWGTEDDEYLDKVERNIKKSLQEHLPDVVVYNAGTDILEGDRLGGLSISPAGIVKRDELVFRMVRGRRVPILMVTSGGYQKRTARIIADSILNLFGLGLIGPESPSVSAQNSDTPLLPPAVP

[3] = target: T3, Histone deacetylase 2 (Homo sapiens, UniProt Q92769); assay: Inhibition of full length human recombinant HDAC2 incubated for 30 to 60 mins by HDAC-Glo I/II assay
[4] = target: T4, Histone deacetylase 1 (Homo sapiens, UniProt Q13547); assay: Inhibition of full length human recombinant HDAC1 incubated for 30 to 60 mins by HDAC-Glo I/II assay
[5] = target: T5, Histone deacetylase 3 (Homo sapiens, UniProt O15379); assay: Inhibition of full length human recombinant HDAC3 incubated for 30 to 60 mins by HDAC-Glo I/II assay
[6] = target: T6, Protein deacetylase HDAC6 (Homo sapiens, UniProt Q9UBN7); assay: Inhibition of full length human recombinant HDAC6 incubated for 30 to 60 mins by HDAC-Glo I/II assay
T6 sequence (Q9UBN7 whole entry): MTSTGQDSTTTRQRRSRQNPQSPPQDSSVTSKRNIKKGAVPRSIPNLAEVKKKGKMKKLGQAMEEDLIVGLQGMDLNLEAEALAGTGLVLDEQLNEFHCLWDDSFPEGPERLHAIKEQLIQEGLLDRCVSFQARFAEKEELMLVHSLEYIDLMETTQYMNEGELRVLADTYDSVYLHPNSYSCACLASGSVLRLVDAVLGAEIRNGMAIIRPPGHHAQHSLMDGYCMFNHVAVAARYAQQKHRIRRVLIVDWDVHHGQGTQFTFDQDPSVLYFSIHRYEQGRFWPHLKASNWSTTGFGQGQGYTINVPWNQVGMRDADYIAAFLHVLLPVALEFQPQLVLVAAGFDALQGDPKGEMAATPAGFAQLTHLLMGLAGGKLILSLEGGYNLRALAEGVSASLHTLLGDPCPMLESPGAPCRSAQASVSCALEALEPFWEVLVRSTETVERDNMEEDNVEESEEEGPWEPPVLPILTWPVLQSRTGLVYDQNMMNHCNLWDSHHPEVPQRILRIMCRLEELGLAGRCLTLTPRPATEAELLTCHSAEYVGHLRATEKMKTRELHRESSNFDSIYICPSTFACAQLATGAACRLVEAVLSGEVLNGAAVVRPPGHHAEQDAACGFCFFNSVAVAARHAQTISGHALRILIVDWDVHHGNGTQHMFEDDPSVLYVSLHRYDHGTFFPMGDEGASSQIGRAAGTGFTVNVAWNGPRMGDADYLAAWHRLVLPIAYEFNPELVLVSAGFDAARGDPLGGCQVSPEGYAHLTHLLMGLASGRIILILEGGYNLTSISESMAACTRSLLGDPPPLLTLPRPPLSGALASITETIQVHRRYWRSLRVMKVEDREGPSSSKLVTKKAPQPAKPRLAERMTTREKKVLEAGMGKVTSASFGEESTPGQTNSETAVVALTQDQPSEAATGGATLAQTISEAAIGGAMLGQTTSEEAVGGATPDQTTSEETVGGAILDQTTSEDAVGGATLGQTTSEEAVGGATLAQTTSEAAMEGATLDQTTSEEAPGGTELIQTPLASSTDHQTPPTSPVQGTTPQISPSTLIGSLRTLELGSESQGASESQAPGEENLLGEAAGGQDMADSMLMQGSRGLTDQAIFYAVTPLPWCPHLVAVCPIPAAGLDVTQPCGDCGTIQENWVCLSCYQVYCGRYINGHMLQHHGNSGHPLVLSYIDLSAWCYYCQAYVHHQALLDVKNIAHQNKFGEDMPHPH

[7] = target: T7, Histone deacetylase 8 (Homo sapiens, UniProt Q9BY41); assay: Inhibition of full length human recombinant HDAC8 incubated for 30 to 60 mins by HDAC-Glo I/II assay
T7 sequence (Q9BY41 whole entry): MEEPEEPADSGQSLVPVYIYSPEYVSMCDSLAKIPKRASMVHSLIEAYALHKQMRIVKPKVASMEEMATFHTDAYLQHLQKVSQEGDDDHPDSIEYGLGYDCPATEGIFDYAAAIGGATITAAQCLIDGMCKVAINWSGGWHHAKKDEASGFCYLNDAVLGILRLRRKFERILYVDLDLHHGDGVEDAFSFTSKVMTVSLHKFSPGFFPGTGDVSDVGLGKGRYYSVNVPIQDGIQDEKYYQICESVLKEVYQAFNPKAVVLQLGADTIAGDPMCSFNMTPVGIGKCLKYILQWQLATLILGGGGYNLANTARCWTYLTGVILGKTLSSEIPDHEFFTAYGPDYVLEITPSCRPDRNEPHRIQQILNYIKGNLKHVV

[8] = target: T6, Protein deacetylase HDAC6; assay: Inhibition of human recombinant HDAC6 using ZMAL -Z-(Ac)Lys-AMC fluorogenic substrate incubated for 30 mins by microplate reader assay
[9] = target: T4, Histone deacetylase 1; assay: Inhibition of human recombinant HDAC1 using ZMAL -Z-(Ac)Lys-AMC fluorogenic substrate incubated for 30 mins by microplate reader assay
[10] = target: T6, Protein deacetylase HDAC6; assay: Inhibition of HDAC6 (unknown origin)
[11] = target: T4, Histone deacetylase 1; assay: Inhibition of HDAC1 (unknown origin)
[12] = target: T5, Histone deacetylase 3
[13] = target: T7, Histone deacetylase 8; assay: Inhibition of full length human recombinant HDAC8 using RHKKAcKAc-AMC fluorogenic peptide as substrate incubated for 2 hrs by microplate reader assay
[14] = target: T8, Histone deacetylase 7 (Homo sapiens, UniProt Q8WUI4); assay: Inhibition of full length human recombinant HDAC7 using Ac-LGK(TFA)-AMC fluorogenic peptide as substrate incubated for 2 hrs by microplate reader assay
T8 sequence (Q8WUI4 whole entry): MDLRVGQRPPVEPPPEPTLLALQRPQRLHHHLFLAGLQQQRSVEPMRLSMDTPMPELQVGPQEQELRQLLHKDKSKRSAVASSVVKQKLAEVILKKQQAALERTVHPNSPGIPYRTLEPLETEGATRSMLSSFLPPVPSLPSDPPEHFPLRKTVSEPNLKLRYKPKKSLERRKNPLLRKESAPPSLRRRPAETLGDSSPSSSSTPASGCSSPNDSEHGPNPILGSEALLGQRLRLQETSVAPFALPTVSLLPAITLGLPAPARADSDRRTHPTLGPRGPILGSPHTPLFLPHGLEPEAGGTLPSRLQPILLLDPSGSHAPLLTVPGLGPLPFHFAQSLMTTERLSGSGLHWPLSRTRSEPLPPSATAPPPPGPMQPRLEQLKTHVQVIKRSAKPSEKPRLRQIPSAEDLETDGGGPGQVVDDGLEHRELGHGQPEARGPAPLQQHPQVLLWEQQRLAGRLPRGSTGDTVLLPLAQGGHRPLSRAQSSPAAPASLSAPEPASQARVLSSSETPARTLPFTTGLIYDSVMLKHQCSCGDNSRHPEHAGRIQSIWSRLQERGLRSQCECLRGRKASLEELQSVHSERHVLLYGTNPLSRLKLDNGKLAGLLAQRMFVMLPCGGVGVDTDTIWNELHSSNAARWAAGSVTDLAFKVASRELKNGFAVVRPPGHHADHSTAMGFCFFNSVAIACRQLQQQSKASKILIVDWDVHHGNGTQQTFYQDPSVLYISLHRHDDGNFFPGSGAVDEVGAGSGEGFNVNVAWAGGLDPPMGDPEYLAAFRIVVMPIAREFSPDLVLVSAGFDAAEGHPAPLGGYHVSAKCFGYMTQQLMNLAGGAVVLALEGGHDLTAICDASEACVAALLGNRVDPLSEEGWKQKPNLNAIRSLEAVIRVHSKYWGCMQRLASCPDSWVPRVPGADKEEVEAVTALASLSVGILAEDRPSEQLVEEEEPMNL

[15] = target: Histone deacetylase 5 (Homo sapiens, UniProt Q9UQL6); assay: Inhibition of full length human recombinant HDAC5 using Ac-LGK(TFA)-AMC fluorogenic peptide as substrate incubated for 2 hrs by microplate reader assay
[16] = target: T2, Histone deacetylase 11; assay: Inhibition of full length human recombinant HDAC11 using RHKKAc-AMC fluorogenic peptide as substrate incubated for 2 hrs by microplate reader assay
[17] = target: T5, Histone deacetylase 3; assay: Inhibition of human recombinant HDAC3 incubated for 45 mins by microplate reader assay
[18] = target: Histone deacetylase 4 (Homo sapiens, UniProt P56524); assay: Inhibition of human recombinant HDAC4 incubated for 45 mins by microplate reader assay
[19] = target: T5, Histone deacetylase 3; assay: Inhibition of full length human recombinant HDAC3 expressed in baculovirus infected Sf9 cells using RHKKAc fluorogenic peptide as substrate incubated for 2 hrs
[20] = target: T1, Polyamine deacetylase HDAC10; assay: Inhibition of full length human recombinant HDAC10 expressed in baculovirus infected Sf9 cells using RHKKAc fluorogenic peptide as substrate incubated for 2 hrs
[21] = target: T4, Histone deacetylase 1; assay: Inhibition of full length human recombinant HDAC1 expressed in baculovirus infected Sf9 cells using RHKKAc fluorogenic peptide as substrate incubated for 2 hrs
[22] = target: T3, Histone deacetylase 2; assay: Inhibition of full length human recombinant HDAC2 expressed in baculovirus infected Sf9 cells using RHKKAc fluorogenic peptide as substrate incubated for 2 hrs
[23] = target: T6, Protein deacetylase HDAC6; assay: Inhibition of human recombinant HDAC6 using BML-AK511 as substrate incubated for 60 mins by fluorimetric assay
[24] = target: Heat shock protein HSP 90-alpha (Homo sapiens) (UniProt P07900); assay: Inhibition of recombinant HSP90 alpha (unknown origin) at 50 uM by fluorescence polarization competitive binding assay
[25] = target: T9, Protein deacetylase HDAC6 (Homo sapiens) (UniProt Q9UBN7); assay: Inhibition of recombinant HDAC6 (unknown origin) using […] fluorogenic peptide as substrate at 50 uM incubated for 1 hr by microplate reader assay
T9 sequence (whole entry): T6 sequence (Q9UBN7 whole entry)

[26] = target: T9, Protein deacetylase HDAC6 (Homo sapiens); assay: Inhibition of recombinant HDAC6 (unknown origin) using […] fluorogenic peptide as substrate at 5 uM incubated for 1 hr by microplate reader assay

T4 sequence (Q13547 whole entry): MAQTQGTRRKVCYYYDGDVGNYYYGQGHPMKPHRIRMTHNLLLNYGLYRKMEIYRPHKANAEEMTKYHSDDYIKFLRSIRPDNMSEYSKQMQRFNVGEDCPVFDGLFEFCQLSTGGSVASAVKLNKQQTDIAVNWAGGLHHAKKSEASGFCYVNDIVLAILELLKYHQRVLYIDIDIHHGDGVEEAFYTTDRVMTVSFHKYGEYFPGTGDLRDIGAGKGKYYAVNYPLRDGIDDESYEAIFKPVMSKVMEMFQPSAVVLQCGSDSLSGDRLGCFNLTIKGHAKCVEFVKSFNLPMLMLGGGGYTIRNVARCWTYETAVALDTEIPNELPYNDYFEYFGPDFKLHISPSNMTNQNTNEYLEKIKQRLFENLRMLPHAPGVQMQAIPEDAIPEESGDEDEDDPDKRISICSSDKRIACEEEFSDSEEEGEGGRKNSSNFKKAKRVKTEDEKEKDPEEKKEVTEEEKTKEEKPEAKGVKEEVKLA
T5 sequence (O15379 whole entry): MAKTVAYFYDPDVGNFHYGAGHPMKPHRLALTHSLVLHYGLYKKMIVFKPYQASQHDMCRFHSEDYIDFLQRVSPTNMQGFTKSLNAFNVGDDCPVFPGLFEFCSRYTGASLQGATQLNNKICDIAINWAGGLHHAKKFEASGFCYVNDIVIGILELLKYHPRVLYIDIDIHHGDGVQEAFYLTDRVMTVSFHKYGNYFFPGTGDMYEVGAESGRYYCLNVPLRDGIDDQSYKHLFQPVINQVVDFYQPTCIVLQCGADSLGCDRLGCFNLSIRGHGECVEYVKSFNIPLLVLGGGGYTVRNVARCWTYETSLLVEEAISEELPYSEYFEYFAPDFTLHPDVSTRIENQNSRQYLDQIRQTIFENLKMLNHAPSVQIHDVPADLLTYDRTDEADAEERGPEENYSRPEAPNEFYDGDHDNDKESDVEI
T3 sequence (Q92769 whole entry): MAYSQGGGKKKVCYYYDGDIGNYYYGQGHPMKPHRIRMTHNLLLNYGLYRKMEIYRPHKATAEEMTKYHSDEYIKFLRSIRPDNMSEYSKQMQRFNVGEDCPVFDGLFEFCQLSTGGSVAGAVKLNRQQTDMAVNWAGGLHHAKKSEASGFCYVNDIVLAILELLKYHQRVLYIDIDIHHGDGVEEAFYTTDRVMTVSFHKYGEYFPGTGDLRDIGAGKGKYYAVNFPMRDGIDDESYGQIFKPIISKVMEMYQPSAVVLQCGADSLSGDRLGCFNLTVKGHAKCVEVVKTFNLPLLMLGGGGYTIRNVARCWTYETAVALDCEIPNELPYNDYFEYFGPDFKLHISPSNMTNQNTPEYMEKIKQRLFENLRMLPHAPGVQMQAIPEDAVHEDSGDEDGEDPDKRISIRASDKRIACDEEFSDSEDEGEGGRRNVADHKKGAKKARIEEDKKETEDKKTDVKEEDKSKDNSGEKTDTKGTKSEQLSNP
Histone deacetylase 4, sequence (P56524 whole entry): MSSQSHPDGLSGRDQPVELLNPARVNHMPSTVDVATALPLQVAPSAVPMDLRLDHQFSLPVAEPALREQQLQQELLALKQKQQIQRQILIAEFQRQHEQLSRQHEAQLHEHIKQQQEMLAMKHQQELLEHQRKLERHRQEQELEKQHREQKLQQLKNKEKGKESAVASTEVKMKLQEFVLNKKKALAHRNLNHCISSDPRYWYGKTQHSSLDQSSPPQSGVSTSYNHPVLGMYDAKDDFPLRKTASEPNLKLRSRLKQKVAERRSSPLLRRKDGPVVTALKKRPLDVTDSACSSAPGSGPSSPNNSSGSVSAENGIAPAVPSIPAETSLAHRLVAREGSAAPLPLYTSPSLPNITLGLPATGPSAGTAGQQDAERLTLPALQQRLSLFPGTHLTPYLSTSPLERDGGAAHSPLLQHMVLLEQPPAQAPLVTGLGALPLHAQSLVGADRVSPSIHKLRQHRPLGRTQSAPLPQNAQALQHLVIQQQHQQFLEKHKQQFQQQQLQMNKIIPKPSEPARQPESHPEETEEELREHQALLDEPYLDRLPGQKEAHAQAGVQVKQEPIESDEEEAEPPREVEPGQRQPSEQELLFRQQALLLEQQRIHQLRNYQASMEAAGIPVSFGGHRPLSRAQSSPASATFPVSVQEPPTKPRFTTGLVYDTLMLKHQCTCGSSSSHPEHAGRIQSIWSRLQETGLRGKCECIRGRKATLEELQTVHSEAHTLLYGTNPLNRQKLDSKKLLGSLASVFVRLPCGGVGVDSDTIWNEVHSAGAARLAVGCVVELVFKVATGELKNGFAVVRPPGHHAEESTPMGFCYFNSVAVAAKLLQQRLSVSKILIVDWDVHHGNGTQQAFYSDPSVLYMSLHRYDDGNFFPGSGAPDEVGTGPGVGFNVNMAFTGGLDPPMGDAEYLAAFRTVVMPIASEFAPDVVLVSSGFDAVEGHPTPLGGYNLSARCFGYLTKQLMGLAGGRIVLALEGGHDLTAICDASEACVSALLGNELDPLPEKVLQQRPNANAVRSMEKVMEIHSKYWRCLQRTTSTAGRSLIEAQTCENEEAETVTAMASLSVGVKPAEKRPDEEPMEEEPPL
Histone deacetylase 5, sequence (Q9UQL6 whole entry): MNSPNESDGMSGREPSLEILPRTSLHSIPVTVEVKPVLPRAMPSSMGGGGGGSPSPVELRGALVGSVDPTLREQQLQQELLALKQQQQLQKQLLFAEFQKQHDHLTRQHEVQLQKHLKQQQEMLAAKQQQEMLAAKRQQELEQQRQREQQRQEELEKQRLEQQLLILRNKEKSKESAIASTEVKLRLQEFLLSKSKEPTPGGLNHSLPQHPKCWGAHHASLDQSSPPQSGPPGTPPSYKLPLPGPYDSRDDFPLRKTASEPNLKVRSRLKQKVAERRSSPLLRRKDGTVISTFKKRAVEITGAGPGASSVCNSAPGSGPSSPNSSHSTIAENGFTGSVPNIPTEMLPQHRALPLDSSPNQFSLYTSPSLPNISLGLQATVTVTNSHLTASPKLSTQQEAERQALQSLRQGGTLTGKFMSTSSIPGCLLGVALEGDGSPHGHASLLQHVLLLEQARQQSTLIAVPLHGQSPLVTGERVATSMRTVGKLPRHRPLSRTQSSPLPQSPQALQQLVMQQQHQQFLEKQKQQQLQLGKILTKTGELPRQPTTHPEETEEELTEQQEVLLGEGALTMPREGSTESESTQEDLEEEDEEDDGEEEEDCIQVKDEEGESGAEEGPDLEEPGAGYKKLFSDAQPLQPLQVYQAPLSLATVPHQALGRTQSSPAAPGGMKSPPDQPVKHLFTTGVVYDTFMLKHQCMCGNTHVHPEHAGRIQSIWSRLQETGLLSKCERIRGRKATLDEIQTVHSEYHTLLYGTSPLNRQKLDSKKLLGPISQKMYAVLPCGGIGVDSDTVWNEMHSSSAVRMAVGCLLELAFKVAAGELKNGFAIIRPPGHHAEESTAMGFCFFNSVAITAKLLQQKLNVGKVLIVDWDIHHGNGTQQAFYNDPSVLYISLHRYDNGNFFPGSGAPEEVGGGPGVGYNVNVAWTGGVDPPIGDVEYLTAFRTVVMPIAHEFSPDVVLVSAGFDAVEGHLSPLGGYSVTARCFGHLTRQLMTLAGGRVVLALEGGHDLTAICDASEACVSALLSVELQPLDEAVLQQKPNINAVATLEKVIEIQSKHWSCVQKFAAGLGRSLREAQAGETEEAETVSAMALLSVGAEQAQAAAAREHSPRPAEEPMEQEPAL

COc1ccc2c3c(cccc13)C(=O)N(Cc1ccc(C(=O)NO)cc1)C2=O
IC50 [1]: 375 nM | IC50 [2]: > 30000 nM | IC50 [3]: 162 nM | IC50 [4]: 108 nM | IC50 [5]: 64 nM | IC50 [6]: 0.1 nM | IC50 [7]: > 30000 nM

CCCC1=C(Nc2ccc(C(=O)NO)cc2)C2N=CC=CC2=N1 (stereo not drawn)
IC50 [8]: 58 nM | IC50 [9]: 2200 nM

CCN(CC)Cc1ccc(Cn2c(=O)c(OCc3ccc(C(=O)NO)cc3)c(-c3cccnc3)c3ccccc32)cc1
IC50 [10]: 11.5 nM | IC50 [11]: 319 nM

O=C(NO)c1ccc(CN2CCCc3cc(Cl)ccc32)cc1
IC50 [12]: 29500 nM | IC50 [13]: 3720 nM | IC50 [14]: 4550 nM | IC50 [15]: 4070 nM | IC50 [16]: 5720 nM

O=C(NO)c1ccc(CC(=O)N(CCO)c2ccccc2)cc1
IC50 [17]: > 10000 nM | IC50 [18]: 1700 nM

CC(C)(C)OC(=O)Nc1cccc(-c2cc(C(=O)NCCc3cc(C(=O)NO)no3)no2)c1
IC50 [19]: > 50000 nM | IC50 [20]: > 50000 nM | IC50 [21]: > 50000 nM | IC50 [22]: > 50000 nM

O=S(=O)(N1CCN(C2COC2)CC1)N(Cc1ccc(-c2nnc(C(F)(F)F)o2)cn1)c1ccc(F)c(Cl)c1
IC50 [23]: 14 nM

Cc1nc(N)nc(COC(=O)c2cccc(-c3cc(C(F)(F)F)on3)c2)n1
inhibition [24]: 32% | inhibition [25]: 62% | inhibition [26]: 53%

CCN(CC)Cc1ccc(Cn2c(=O)c(OCc3ccc(C(=O)NO)cc3)c(-c3ccccc3)c3ccccc32)cc1
IC50 [10]: 6.9 nM | IC50 [11]: 322 nM
